Format in all cases: cell-based
The target of experiment [1] is T1, ER-α (Homo sapiens, UniProt P03372).
T1 construct: endogenous in cells; host or cells: MCF-7
T1 sequence (P03372 1-595): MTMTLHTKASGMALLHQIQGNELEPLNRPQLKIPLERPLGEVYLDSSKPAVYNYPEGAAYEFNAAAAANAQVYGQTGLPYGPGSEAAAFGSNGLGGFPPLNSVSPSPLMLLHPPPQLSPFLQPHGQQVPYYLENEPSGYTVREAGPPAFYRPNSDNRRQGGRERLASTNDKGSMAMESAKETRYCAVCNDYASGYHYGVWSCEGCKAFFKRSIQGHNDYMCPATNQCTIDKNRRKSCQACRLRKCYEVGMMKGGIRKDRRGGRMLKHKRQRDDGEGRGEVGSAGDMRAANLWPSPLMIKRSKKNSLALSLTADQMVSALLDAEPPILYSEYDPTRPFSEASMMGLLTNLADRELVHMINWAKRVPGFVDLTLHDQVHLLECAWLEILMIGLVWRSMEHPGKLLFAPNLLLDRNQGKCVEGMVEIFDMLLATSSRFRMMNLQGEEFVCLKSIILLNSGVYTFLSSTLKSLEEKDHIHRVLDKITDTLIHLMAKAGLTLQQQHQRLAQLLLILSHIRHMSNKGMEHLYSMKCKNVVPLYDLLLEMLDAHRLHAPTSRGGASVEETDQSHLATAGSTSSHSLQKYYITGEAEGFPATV
The experiment is described as follows: ER-α In Cell Western Assay (ER1D5). The following applies: MCF-7 cells, ER1D5 antibody, 4 or 24 hr post compound addition, read-out: ER In-Cell Western Assay (ER1D5); for Emax: MCF7, Max Response; for DC50: IC50. The procedure, abridged:
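MCF-7 cells in RPMI with 10% charcoal-stripped FBS treated with 11-point semilog series (0.3–0.000003 μM final) for 4 or 24 h. Fixed cells stained with ER1D5 plus IRDye 800CW secondary and DRAQ5; ER level = 800/700 nm intensity ratio as % of untreated cells.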

For the next experiment, the system named is MCF-7 cells. The experiment in a line: Breast Cancer Cell Viability Assay (MCF7 Viability Assay). The following applies: 5 days' compound exposure, CellTiter-Glo; for IC50: Homo sapiens, MCF7, 120 h. The procedure, abridged: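 MCF-7 cells, 320 per well in RPMI with 10% FBS and 20 mM HEPES, adhered overnight, then exposed 5 days to an eleven-point semilog dilution (final 0.3–0.000003 μM). CellTiter-Glo luminescence; % viability relative to untreated cells after subtracting cell-free background.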

In experiment [2] the target is T1, ER-α. The experiment is described as follows: ER-α in Cell Western Assay (SP1). The following applies: MCF-7 cells, SP1 rabbit monoclonal Ab, 4 or 24 hr post compound addition, read-out: ER In-Cell Western Assay (SP1); for Emax: MCF7, Max Response; for DC50: IC50. The procedure, abridged:
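MCF-7 cells in charcoal-stripped FBS medium treated with 11-point semilog dilutions (0.3–0.000003 μM final) for 4 or 24 hr, then fixed and immunostained with SP1 anti-ER antibody. ER signal (800 nm) normalized to DRAQ5 DNA signal (700 nm) and expressed as % of untreated cells.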

This note sets out measurements from patent publication US9078871B2, “Estrogen receptor modulators and uses thereof” (SERAGON PHARMACEUTICALS, INC., priority 2010, dated 2015).

Each structure is given as a SMILES string. A value given as a limit tells only on which side of the number the result lay.

Usually IC50 stands for the concentration that gives 50% inhibition. Low values mean higher potency, high ones lower potency. On to `CC1=C(c2cccc(O)c2)C(c2ccc(OC[C@H](C)N3CCC[C@H]3C)cc2)Oc2ccc(O)cc21` (stereo partly drawn) [Example 23, 3-(3-Hydroxyphenyl)-4-methyl-2-(4-((S)-2-((R)-2-methylpyrrolidin-1-yl)propoxy)phenyl)-2H-chromen-6-ol], for which, at ER-α [1], the Emax is not below 65% and the DC50 is not above 1 nM. Moreover, in the experiment with MCF-7 cells, the “MCF7 Viability Assay Max Response” value was “++ (++ = a single % value ≧50%)” and the IC50 was not above 1 nM. Moreover, at ER-α [2], the Emax is not below 85% and the DC50 is not above 1 nM.

As to `CC1=C(c2cccc(O)c2)C(c2ccc(OC[C@H](C)N3CCC[C@@H]3C)cc2)Oc2ccc(O)cc21` (stereo partly drawn) [Example 24, 3-(3-Hydroxyphenyl)-4-methyl-2-(4-((S)-2-((S)-2-methylpyrrolidin-1-yl)propoxy)phenyl)-2H-chromen-6-ol], on ER-α [1], the Emax was 40 to 65% and the DC50 is not above 1 nM. Besides, in the experiment on MCF-7 cells, the “MCF7 Viability Assay Max Response” value is “+ (+ = a single % value <50%)” and the IC50 is not above 1 nM. For the same compound, on ER-α [2], the Emax was less than 60% and the DC50 is not above 1 nM.

As to `CC1=C(c2cccc(O)c2)C(c2ccc(OCCN3CCCCCCC3)cc2)Oc2ccc(O)cc21` (stereo not drawn) [Example 25, 2-(4-(2-(Azocan-1-yl)ethoxy)phenyl)-3-(3-hydroxyphenyl)-4-methyl-2H-chromen-6-ol], at ER-α [1], the Emax was less than 40% and the DC50 is not above 1 nM. In the experiment on MCF-7 cells, the “MCF7 Viability Assay Max Response” value is “+ (+ = a single % value <50%)” and the IC50 was not above 1 nM. In addition, at ER-α [2], the Emax is less than 60% and the DC50 was not above 1 nM.

As for `CC1=C(c2cccc(O)c2)C(c2ccc(OCCN3CCCC3)cc2)Oc2cc(O)ccc21` (stereo not drawn) [Example 26, 3-(3-Hydroxyphenyl)-4-methyl-2-(4-(2-(pyrrolidin-1-yl)ethoxy)phenyl)-2H-chromen-7-ol], on ER-α [1], the Emax is 40 to 65% and the DC50 is not above 1 nM. Besides, in the experiment on MCF-7 cells, the “MCF7 Viability Assay Max Response” value is listed as “++ (++ = a single % value ≧50%)” and the IC50 is not above 1 nM. Besides, on ER-α [2], the Emax was in the range of 60 to 85% and the DC50 is not above 1 nM.

Turning to `CC1=C(c2cccc(O)c2)C(c2ccc(OC[C@H](C)N3CC[C@@H](C)C3)cc2)Oc2cc(O)ccc21` (stereo partly drawn) [Example 27, 3-(3-Hydroxyphenyl)-4-methyl-2-(4-((S)-2-((R)-3-methylpyrrolidin-1-yl)propoxy)phenyl)-2H-chromen-7-ol], on ER-α [1], the Emax is not below 65% and the DC50 was not above 1 nM. Moreover, in the experiment on MCF-7 cells, the “MCF7 Viability Assay Max Response” value is given as “++ (++ = a single % value ≧50%)” and the IC50 is not above 1 nM. At ER-α [2], the Emax is not below 85% and the DC50 was not above 1 nM.

On to `CC1=C(c2ccc(O)cc2)C(c2ccc(OC[C@H](C)N3CC[C@@H](C)C3)cc2)Oc2cc(O)ccc21` (stereo partly drawn) [Example 28, 3-(4-Hydroxyphenyl)-4-methyl-2-(4-((S)-2-((R)-3-methylpyrrolidin-1-yl)propoxy)phenyl)-2H-chromen-7-ol], for which, on ER-α [1], the Emax was not below 65% and the DC50 is not above 1 nM. Further, in the experiment on MCF-7 cells, the “MCF7 Viability Assay Max Response” value is on record as “++ (++ = a single % value ≧50%)” and the IC50 is not above 1 nM. Besides, at ER-α [2], the Emax is not below 85% and the DC50 was not above 1 nM.

In the case of `CC1=C(c2ccccc2)C(c2ccc(OC[C@H](C)N3CC[C@@H](C)C3)cc2)Oc2ccc(O)cc21` (stereo partly drawn) [Example 29, 4-Methyl-2-(4-((S)-2-((R)-3-methylpyrrolidin-1-yl)propoxy)phenyl)-3-phenyl-2H-chromen-6-ol], on ER-α [1], the Emax is not below 65% and the DC50 was not above 1 nM. Further, in the experiment on MCF-7 cells, the “MCF7 Viability Assay Max Response” value is on record as “++ (++ = a single % value ≧50%)” and the IC50 was not above 1 nM. For the same compound, at ER-α [2], the Emax was in the range of 60 to 85% and the DC50 is not above 1 nM.

For `CC1=C(c2ccc(O)cc2)C(c2ccc(OC[C@H](C)N3CC[C@@H](C)C3)cc2)Oc2ccc(O)cc21` (stereo partly drawn) [Example 31, 3-(4-Hydroxyphenyl)-4-methyl-2-(4-((S)-2-((R)-3-methylpyrrolidin-1-yl)propoxy)phenyl)-2H-chromen-6-ol], on ER-α [1], the Emax was not below 65% and the DC50 was not above 1 nM. Further, in the experiment on MCF-7 cells, the “MCF7 Viability Assay Max Response” value is “++ (++ = a single % value ≧50%)” and the IC50 is not above 1 nM. Besides, on ER-α [2], the Emax was not below 85% and the DC50 was not above 1 nM.

Regarding `CC1=C(c2cccc(F)c2)C(c2ccc(OC[C@H](C)N3CC[C@@H](C)C3)cc2)Oc2ccc(O)cc21` (stereo partly drawn) [Example 32, 3-(3-Fluorophenyl)-4-methyl-2-(4-((S)-2-((R)-3-methylpyrrolidin-1-yl)propoxy)phenyl)-2H-chromen-6-ol], at ER-α [1], the Emax was not below 65% and the DC50 was not above 1 nM. Further, in the experiment on MCF-7 cells, the “MCF7 Viability Assay Max Response” value is on record as “+ (+ = a single % value <50%)” and the IC50 was not above 1 nM. For the same compound, on ER-α [2], the Emax is not below 85% and the DC50 is not above 1 nM.

As to `CC1=C(c2ccc(O)c(F)c2)C(c2ccc(OC[C@H](C)N3CC[C@@H](C)C3)cc2)Oc2ccc(O)cc21` (stereo partly drawn) [Example 33, 3-(3-Fluoro-4-hydroxyphenyl)-4-methyl-2-(4-((S)-2-((R)-3-methylpyrrolidin-1-yl)propoxy)phenyl)-2H-chromen-6-ol], at ER-α [1], the Emax is not below 65% and the DC50 was not above 1 nM. In the experiment on MCF-7 cells, the “MCF7 Viability Assay Max Response” value was “++ (++ = a single % value ≧50%)” and the half-inhibitory concentration (IC50) is not above 1 nM. Moreover, at ER-α [2], the Emax was not below 85% and the DC50 is not above 1 nM.

On to `CC1=C(c2cccc(O)c2)C(c2ccc(OCCN3CCCC3)cc2F)Oc2ccc(O)cc21` (stereo not drawn) [Example 34, 2-(2-Fluoro-4-(2-(pyrrolidin-1-yl)ethoxy)phenyl)-3-(3-hydroxyphenyl)-4-methyl-2H-chromen-6-ol], for which, on ER-α [1], the Emax was in the range of 40 to 65% and the DC50 was not above 1 nM. For the same compound, in the experiment on MCF-7 cells, the “MCF7 Viability Assay Max Response” value was “++ (++ = a single % value ≧50%)” and the IC50 is not above 1 nM. On ER-α [2], the Emax is 60 to 85% and the DC50 is not above 1 nM.

For the compound `CC1=C(c2cccc(O)c2)C(c2ccc(OC[C@H](C)N3CC[C@@H](C)C3)cc2F)Oc2ccc(O)cc21` (stereo partly drawn) [Example 35, 2-(2-Fluoro-4-((S)-2-((R)-3-methylpyrrolidin-1-yl)propoxy)phenyl)-3-(3-hydroxyphenyl)-4-methyl-2H-chromen-6-ol], at ER-α [1], the Emax was not below 65% and the DC50 is not above 1 nM. Besides, in the experiment with MCF-7 cells, the “MCF7 Viability Assay Max Response” value is given as “++ (++ = a single % value ≧50%)” and the IC50 is not above 1 nM. Further, on ER-α [2], the Emax is not below 85% and the DC50 was not above 1 nM.

As to `CC1=C(c2cccc(O)c2)C(c2ccc(OCCN3CCCC3)cc2)Oc2ccc(O)cc21` (stereo not drawn) [Example 36, 3-(3-Hydroxyphenyl)-4-methyl-2-(4-(2-(pyrrolidin-1-yl)ethoxy)phenyl)-2H-chromen-6-ol], on ER-α [1], the Emax lay in the range of 40 to 65% and the DC50 is not above 1 nM. Besides, in the experiment on MCF-7 cells, the “MCF7 Viability Assay Max Response” value was “++ (++ = a single % value ≧50%)” and the IC50 is not above 1 nM. Further, on ER-α [2], the Emax fell in the range of 60 to 85% and the DC50 was not above 1 nM.

As for `CC1=C(c2cccc(O)c2)C(c2ccc(OC[C@H](C)N3CCC3)cc2)Oc2ccc(O)cc21` (stereo partly drawn) [Example 37, 2-(4-((S)-2-(Azetidin-1-yl)propoxy)phenyl)-3-(3-hydroxyphenyl)-4-methyl-2H-chromen-6-ol], on ER-α [1], the Emax lay within 40 to 65% and the DC50 was not above 1 nM. Moreover, in the experiment on MCF-7 cells, the “MCF7 Viability Assay Max Response” value was “++ (++ = a single % value ≧50%)” and the half-inhibitory concentration (IC50) is not above 1 nM. In addition, on ER-α [2], the Emax was in the range of 60 to 85% and the DC50 is not above 1 nM.

For `CC1=C(c2cccc(O)c2)C(c2ccc(OCCN3CCC3)cc2)Oc2ccc(O)cc21` (stereo not drawn) [Example 38, 2-(4-(2-(Azetidin-1-yl)ethoxy)phenyl)-3-(3-hydroxyphenyl)-4-methyl-2H-chromen-6-ol], on ER-α [1], the Emax was in the range of 40 to 65% and the DC50 is not above 1 nM. For the same compound, in the experiment on MCF-7 cells, the “MCF7 Viability Assay Max Response” value is listed as “++ (++ = a single % value ≧50%)” and the IC50 was not above 1 nM. For the same compound, at ER-α [2], the Emax fell in the range of 60 to 85% and the DC50 is not above 1 nM.
